This is an account of results in US12673918B2, “Small molecule RPN13 inhibitors with antitumor properties” (The Johns Hopkins University, priority 2019, dated 2026).

By IC50 is commonly meant the concentration that gives 50% inhibition.

Like-named read-outs stand apart in the source and are kept apart here.

Assay [1] relates to HeLa cells. The assay is described as follows: XTT cytotoxicity assay, HeLa. The format is cell-based, human. The source says: (§1) The impact of substituents of the aromatic ring on the potency of molecules was also examined. The presence of either an electron withdrawing group (EWG) or an electron donating group (EDG) influences the reactivity of a Michael acceptor towards the target protein but can also impact specificity/selectivity.
A general note: Formazan colour is commonly taken as a measure of viable cells.

Assay [2] has as its system SKOV3 cells. The assay is described as follows: XTT cytotoxicity assay, SKOV3. The format is cell-based, human.
Description: as §1

[3] abbreviates: Table 1, XTT assay, read-out: IC50 HeLa.
Where [4] appears, read: Table 1, XTT assay, read-out: IC50 SKOV3.
[5] abbreviates: Table 2, read-out: IC50 HeLa (bridge compounds).
Setting [6] is: Table 2, read-out: IC50 SKOV3 (bridge compounds).

Take `O=C1C(=Cc2ccc(Cl)c(Cl)c2)CN(C(=O)C(Cc2ccccc2)NC(=O)c2ccccc2)CC1=Cc1ccc(Cl)c(Cl)c1` (stereo not shown) [RA190Bn]: the IC50 in assay [1] (setting [3]) is 0.086 µM; in assay [2] (setting [4]) it was 0.121 µM.
With `CNC(=O)NC(Cc1ccccc1)C(=O)N1CC(=Cc2ccc(Cl)c(Cl)c2)C(=O)C(=Cc2ccc(Cl)c(Cl)c2)C1` (stereo not shown) [RA190MU], the IC50 in assay [1] (setting [3]) came to 0.141 µM; in assay [2] (setting [4]), 0.239 µM.
`C=CC(=O)NC(Cc1ccccc1)C(=O)N1C2CCC1C(=Cc1ccc(Cl)c(Cl)c1)C(=O)C2=Cc1ccc(Cl)c(Cl)c1` (stereo not shown) [RA339]: the results for the IC50 in assay [1] (setting [5]) and in assay [2] (setting [6]) were 0.046 µM and 0.054 µM, respectively.
`COc1cc(C=C2CN(C(=O)C(N)Cc3ccccc3)CC(=Cc3cc(OC)c(OC)c(OC)c3)C2=O)cc(OC)c1OC` (stereo not shown) [RA-TMP]: the IC50 amounted to 0.078 µM in assay [1] (setting [3]) and 0.125 µM in assay [2] (setting [4]).
For the molecule `O=C1C(=Cc2ccc([N+](=O)[O-])cc2)C2CCC(N2)C1=Cc1ccc([N+](=O)[O-])cc1` [RA331], the IC50 was determined as 0.236 µM in assay [1] (setting [5]) and 0.301 µM in assay [2] (setting [6]).
Turning to `Cn1cncc1S(=O)(=O)NC(Cc1ccccc1)C(=O)N1CC(=Cc2ccc(Cl)c(Cl)c2)C(=O)C(=Cc2ccc(Cl)c(Cl)c2)C1` (stereo not shown) [RA190NMS], the IC50 in assay [1] (setting [3]) stood at 0.078 µM; in assay [2] (setting [4]), 0.094 µM.
As for `NCCCCCC(=O)NC(Cc1ccccc1)C(=O)N1CC(=Cc2ccc(Cl)c(Cl)c2)C(=O)C(=Cc2ccc(Cl)c(Cl)c2)C1` (stereo not shown) [RA190AHA], the half-inhibitory concentration (IC50) in assay [1] (setting [3]) was 0.062 µM; in assay [2] (setting [4]), 0.088 µM.
Taken in the same sequence, the figures for `CC(=O)NCCCCC(N)C(=O)NC(Cc1ccccc1)C(=O)N1CC(=Cc2ccc(Cl)c(Cl)c2)C(=O)C(=Cc2ccc(Cl)c(Cl)c2)C1` (stereo not shown) [RA310Ac] were 0.195 µM and 0.284 µM.
The corresponding values for `CCCC(CCC)C(=O)NC(Cc1ccccc1)C(=O)N1CC(=Cc2ccc(Cl)c(Cl)c2)C(=O)C(=Cc2ccc(Cl)c(Cl)c2)C1` (stereo not shown) [RA190VA] are 0.074 µM and 0.087 µM.
As to `O=C(CCCC[C@@H]1SCC2NC(=O)NC21)N[C@@H](Cc1ccccc1)C(=O)N1C/C(=C\c2ccc(Cl)c(Cl)c2)C(=O)/C(=C/c2ccc(Cl)c(Cl)c2)C1` (stereo partly shown) [RA190B, reference compound], in assay [1] (setting [3]), the IC50 turned out to be 0.346 µM.
On to `O=C1C(=Cc2ccc([N+](=O)[O-])cc2)CN(C(=O)C(Cc2ccccc2)NC(=O)C(F)(F)F)CC1=Cc1ccc([N+](=O)[O-])cc1` (stereo not shown) [RA183CF3], for which the IC50 in assay [1] (setting [3]) came to 0.045 µM; in assay [2] (setting [4]), 0.079 µM.
Taken in the same sequence, the figures for `CC(=O)NC(Cc1ccccc1)C(=O)N1CC(=Cc2ccc([N+](=O)[O-])cc2)C(=O)C(=Cc2ccc([N+](=O)[O-])cc2)C1` (stereo not shown) [RA183Ac] were 0.056 µM and 0.071 µM.
Taken in the same sequence, the figures for `O=C(O)CCC(=O)NC(Cc1ccccc1)C(=O)N1CC(=Cc2ccc(Cl)c(Cl)c2)C(=O)C(=Cc2ccc(Cl)c(Cl)c2)C1` (stereo not shown) [RA190SA] were 0.121 µM and 0.253 µM.
Take `COc1cc(C(=O)NC(Cc2ccccc2)C(=O)N2CC(=Cc3ccc(Cl)c(Cl)c3)C(=O)C(=Cc3ccc(Cl)c(Cl)c3)C2)cc(OC)c1OC` (stereo not shown) [RA190TMB]: the half-maximal inhibitory concentration (IC50) was 0.094 µM in assay [1] (setting [3]) and 0.112 µM in assay [2] (setting [4]).
With `O=C(Nc1ccccc1)NC(Cc1ccccc1)C(=O)N1CC(=Cc2ccc(Cl)c(Cl)c2)C(=O)C(=Cc2ccc(Cl)c(Cl)c2)C1` (stereo not shown) [RA234], the IC50 in assay [1] (setting [3]) came out at 0.143 µM; in assay [2] (setting [4]) it was 0.235 µM.
For `C=CC(=O)N1C2CCC1C(=Cc1ccc([N+](=O)[O-])cc1)C(=O)C2=Cc1ccc([N+](=O)[O-])cc1` [RA333], the IC50 in assay [1] (setting [5]) came to 0.112 µM; in assay [2] (setting [6]), 0.167 µM.
As to `O=C(CCl)N[C@@H](Cc1ccccc1)C(=O)N1C/C(=C\c2ccc(Cl)c(Cl)c2)C(=O)/C(=C/c2ccc(Cl)c(Cl)c2)C1` [RA371], the IC50 stood at 0.044 µM in assay [1] (Homo sapiens, HeLa, Table 1, XTT assay, read-out: IC50 HeLa) and 0.047 µM in assay [2] (Homo sapiens, SK-OV-3, Table 1, XTT assay, read-out: IC50 SKOV3).
In the case of `CC(N)C(=O)N1CC(=Cc2ccc(Cl)c(Cl)c2)C(=O)C(=Cc2ccc(Cl)c(Cl)c2)C1` (stereo not shown) [RA7-Ala], the IC50 in assay [1] (setting [3]) stood at 0.068 µM; in assay [2] (setting [4]), 0.092 µM.
Turning to `O=C1C(=Cc2ccccc2)C2CCC(N2)C1=Cc1ccccc1` [RA330], the figures for the IC50 in assay [1] (setting [5]) and in assay [2] (setting [6]) were 0.239 µM and 0.278 µM, respectively.
Taken in the same sequence, the figures for `CC(=O)N1C2CCC1C(=Cc1ccc(Cl)c(Cl)c1)C(=O)C2=Cc1ccc(Cl)c(Cl)c1` [RA335] were 0.161 µM and 0.251 µM.
As for `CC(C)C(N)C(=O)N1CC(=Cc2ccc(Cl)c(Cl)c2)C(=O)C(=Cc2ccc(Cl)c(Cl)c2)C1` (stereo not shown) [RA7-Val], the results for the IC50 in assay [1] (setting [3]) and in assay [2] (setting [4]) were 0.064 µM and 0.072 µM, respectively.
Taken in the same sequence, the figures for `CC(C)CC(N)C(=O)N1CC(=Cc2ccc(Cl)c(Cl)c2)C(=O)C(=Cc2ccc(Cl)c(Cl)c2)C1` (stereo not shown) [RA228] were 0.066 µM and 0.098 µM.
Taken in the same sequence, the figures for `CS(=O)(=O)NC(Cc1ccccc1)C(=O)N1CC(=Cc2ccc(Cl)c(Cl)c2)C(=O)C(=Cc2ccc(Cl)c(Cl)c2)C1` (stereo not shown) [RA190MS] were 0.086 µM and 0.133 µM.
Consider `O=C1C(=Cc2ccc(O)c(O)c2)CNCC1=Cc1ccc(O)c(O)c1` [DHBC], for which the figures for the IC50 in assay [1] (setting [3]) and in assay [2] (setting [4]) were 0.667 µM and 0.788 µM, respectively.
With `O=C1C(=Cc2ccc(Cl)c(Cl)c2)CN(C(=O)C(Cc2ccccc2)NC(=O)c2ccccn2)CC1=Cc1ccc(Cl)c(Cl)c1` (stereo not shown) [RA190P], the IC50 in assay [1] (setting [3]) worked out at 0.055 µM; in assay [2] (setting [4]), 0.064 µM.
The corresponding values for `C=Cc1ccc(C(=O)NC(Cc2ccccc2)C(=O)N2CC(=Cc3ccc(Cl)c(Cl)c3)C(=O)C(=Cc3ccc(Cl)c(Cl)c3)C2)cc1` (stereo not shown) [RA190VBA] are 0.094 µM and 0.178 µM.
Regarding `C=CC(=O)N[C@@H](Cc1ccccc1)C(=O)N1C/C(=C\c2ccc(Cl)c(Cl)c2)C(=O)/C(=C/c2ccc(Cl)c(Cl)c2)C1` [RA190 ACR], the figures for the IC50 in assay [1] (setting [3]) and in assay [2] (setting [4]) were 0.042 µM and 0.062 µM, respectively.
As for `N#CCC(=O)NC(Cc1ccccc1)C(=O)N1CC(=Cc2ccc(Cl)c(Cl)c2)C(=O)C(=Cc2ccc(Cl)c(Cl)c2)C1` (stereo not shown) [RA190CA], the IC50 was found to be 0.051 µM in assay [1] (setting [3]) and 0.084 µM in assay [2] (setting [4]).
For `NC(Cc1ccccc1)C(=O)N1CC(=Cc2ccc(Cl)c(C(F)(F)F)c2)C(=O)C(=Cc2ccc(Cl)c(C(F)(F)F)c2)C1` (stereo not shown) [RA-CTFP], the 50% inhibitory concentration (IC50) in assay [1] (setting [3]) worked out at 0.056 µM; in assay [2] (setting [4]) it was 0.081 µM.
For the molecule `C=CC(=O)N1C2CCC1C(=Cc1ccc(Cl)c(Cl)c1)C(=O)C2=Cc1ccc(Cl)c(Cl)c1` [RA334], the IC50 came to 0.101 µM in assay [1] (setting [5]) and 0.186 µM in assay [2] (setting [6]).
For `Cl.NCCCCC(N)C(=O)NC(Cc1ccccc1)C(=O)N1CC(=Cc2ccc(Cl)c(Cl)c2)C(=O)C(=Cc2ccc(Cl)c(Cl)c2)C1` (stereo not shown) [RA310], the IC50 in assay [1] (setting [3]) was found to be 0.543 µM; in assay [2] (setting [4]), 0.446 µM. Besides, the “fold decreased potency compared to RA190” value in assay [1] (cytotoxicity, Table 1 cell lines (HeLa, SKOV3)) amounted to 3 fold.
With `C=CC(=O)N1C2CCC1C(=Cc1ccc(-c3cccnc3)cc1)C(=O)C2=Cc1ccc(-c2cccnc2)cc1` [RA340], the values for the IC50 in assay [1] (setting [5]) and in assay [2] (setting [6]) were 0.184 µM and 0.259 µM, respectively.
For `NC(Cc1ccccc1)C(=O)N1CC(=Cc2ccc(Cl)cc2)C(=O)C(=Cc2ccc(Cl)cc2)C1` (stereo not shown) [RA-4Cl], the IC50 in assay [1] (setting [3]) stood at 0.071 µM; in assay [2] (setting [4]) it was 0.083 µM.
Taken in the same sequence, the figures for `C=CC(=O)NC(Cc1ccccc1)C(=O)N1CC(=Cc2ccc([N+](=O)[O-])cc2)C(=O)C(=Cc2ccc([N+](=O)[O-])cc2)C1` (stereo not shown) [RA183Acr] were 0.049 µM and 0.064 µM.
For the molecule `NC(Cc1ccccc1)C(=O)N1CC(=Cc2ccc([N+](=O)[O-])cc2)C(=O)C(=Cc2ccc(Cl)c(Cl)c2)C1` (stereo not shown) [RA-asyP], the results for the IC50 in assay [1] (setting [3]) and in assay [2] (setting [4]) were 0.048 µM and 0.062 µM, respectively.
